Measurements as given in patent publication US20250197382A1, “KIF18A INHIBITOR” (WIGEN BIOMEDICINE TECHNOLOGY (SHANGHAI) CO., LTD., priority 2022, published 2025).

Each compound was assayed against Recombinant human KIF18A (1-467His-tagged) protein (Homo sapiens (Human), UniProt Q8NI77) (assay: KIF18A enzyme assay (microtubule-stimulated ATPase activity, ADP-Glo)). Conditions: 30 nM KIF18A, ATP 75 μM, read-out: inhibitory activity against KIF18A IC50.
Format: biochemical
Outline: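 Baculovirus-expressed human KIF18A (1-467, His-tagged; 30 nM) preincubated 15 min at room temperature with compound (22-point 2-fold series) in pH 7.5 Tris buffer containing 30 μg/mL pig microtubules and 1 μM paclitaxel.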

Recombinant human KIF18A (1-467His-tagged) protein, sequence (Q8NI77 1-467): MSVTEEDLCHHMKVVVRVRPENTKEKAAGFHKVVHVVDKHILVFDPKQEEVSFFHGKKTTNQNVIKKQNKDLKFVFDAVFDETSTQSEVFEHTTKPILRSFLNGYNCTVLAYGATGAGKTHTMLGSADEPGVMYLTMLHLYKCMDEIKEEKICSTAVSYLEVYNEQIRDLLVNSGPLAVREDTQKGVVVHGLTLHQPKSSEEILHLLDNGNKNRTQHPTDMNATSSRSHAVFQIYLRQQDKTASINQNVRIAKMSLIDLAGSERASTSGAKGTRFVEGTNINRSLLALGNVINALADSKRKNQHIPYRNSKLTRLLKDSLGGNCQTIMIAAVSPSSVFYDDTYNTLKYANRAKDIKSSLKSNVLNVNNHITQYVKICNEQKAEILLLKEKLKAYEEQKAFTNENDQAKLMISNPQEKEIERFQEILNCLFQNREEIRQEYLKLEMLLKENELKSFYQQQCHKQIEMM
Recombinant human KIF18A (1-467His-tagged) protein, sequence (P02550 whole entry partner): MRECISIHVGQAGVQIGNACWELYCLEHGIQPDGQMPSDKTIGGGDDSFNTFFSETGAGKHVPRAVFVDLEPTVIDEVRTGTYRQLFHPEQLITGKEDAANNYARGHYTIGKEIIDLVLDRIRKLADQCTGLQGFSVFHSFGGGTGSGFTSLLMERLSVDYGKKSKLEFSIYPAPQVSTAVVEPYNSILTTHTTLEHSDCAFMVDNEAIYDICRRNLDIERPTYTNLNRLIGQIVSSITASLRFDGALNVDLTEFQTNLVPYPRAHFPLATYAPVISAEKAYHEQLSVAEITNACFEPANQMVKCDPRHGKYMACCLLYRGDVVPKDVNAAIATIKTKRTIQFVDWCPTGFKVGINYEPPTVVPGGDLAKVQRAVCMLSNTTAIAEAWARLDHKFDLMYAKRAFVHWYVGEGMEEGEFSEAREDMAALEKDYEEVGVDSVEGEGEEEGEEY
Recombinant human KIF18A (1-467His-tagged) protein, sequence (P02554 whole entry partner): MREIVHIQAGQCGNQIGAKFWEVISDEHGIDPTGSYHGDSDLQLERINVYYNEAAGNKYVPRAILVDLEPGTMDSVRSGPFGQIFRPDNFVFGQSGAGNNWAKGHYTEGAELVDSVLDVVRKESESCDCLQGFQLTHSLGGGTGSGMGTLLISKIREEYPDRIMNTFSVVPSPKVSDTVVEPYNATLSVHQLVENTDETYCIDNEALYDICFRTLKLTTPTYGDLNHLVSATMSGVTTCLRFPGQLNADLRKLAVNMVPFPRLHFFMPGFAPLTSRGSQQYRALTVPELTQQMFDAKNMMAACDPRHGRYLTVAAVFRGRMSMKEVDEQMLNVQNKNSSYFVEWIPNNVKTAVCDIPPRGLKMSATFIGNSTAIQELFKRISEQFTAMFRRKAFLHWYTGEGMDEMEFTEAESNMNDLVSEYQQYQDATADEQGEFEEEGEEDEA

IC50, ≤ 100 nM:
C[C@@H]1CN(c2cc(C(=O)Nc3ccc(S(=O)(=O)N[C@@H](C)CO)cc3N3CCC4(CC3)CC4)cc3ccn(C)c23)CCO1 [Compound 447]
C[C@H](CO)NS(=O)(=O)c1ccc(NC(=O)c2cc(N3CCO[C@H](C)C3)c3c(ccn3C)c2)c(N2CCC3(CC2)CC3)c1 [Compound 448]
Cn1ccc2cc(NC(=O)c3ccc(NS(=O)(=O)CCO)cc3N3CCC4(CC3)CC4)nc(N3CCC(F)(F)CC3)c21 [Compound 449]
C[C@@H]1CN(c2nc(NC(=O)c3ccc(NS(=O)(=O)CCO)cc3N3CCC4(CC3)CC4)cc3ccn(C)c23)CCO1 [Compound 450]
C[C@H]1CN(c2nc(NC(=O)c3ccc(NS(=O)(=O)CCO)cc3N3CCC4(CC3)CC4)cc3ccn(C)c23)CCO1 [Compound 451]
Cn1ccc2cc(NC(=O)c3ccc(NS(=O)(=O)CCO)cc3N3CCC4(CC3)CC4)nc(N3CC(F)(F)C3)c21 [Compound 452]
Cn1ccc2cc(NC(=O)c3ccc(NS(=O)(=O)CCO)cc3N3CCC4(CC3)CC4)nc(OCCC(F)(F)F)c21 [Compound 453]
Cn1ccc2cc(NC(=O)c3ccc(NS(=O)(=O)CCO)cc3N3CCC4(CC3)CC4)nc(N3CCC4(CC4)C3)c21 [Compound 454]
Cn1ccc2cc(NC(=O)c3ccc(NS(=O)(=O)CCO)cc3N3CCC4(CC3)CC4)nc(OC3CCC3)c21 [Compound 455]
Cn1ccc2cc(NC(=O)c3ccc(NS(=O)(=O)CCO)cc3N3CCC4(CC3)CC4)nc(N3CCC(C)(F)C3)c21 (centres unmarked) [Compound 456]
Cn1ccc2cc(NC(=O)c3ccc(NS(=O)(=O)CCO)cc3N3CCC4(CC3)CC4)nc(N3CCC(F)CC3)c21 [Compound 457]
Cn1ccc2cc(NC(=O)c3ccc(NS(=O)(=O)CCO)cc3N3CCC4(CC3)CC4)nc(N3CC4CC4C3)c21 (centres unmarked) [Compound 458]
Cn1ccc2cc(NC(=O)c3ccc(NS(=O)(=O)CCO)cc3N3CCC4(CC3)CC4)nc(NC(C)(C)CO)c21 [Compound 459]
Cn1ccc2cc(NC(=O)c3ccc(NS(=O)(=O)CCO)cc3N3CCC4(CC3)CC4)nc(N3CCOCC3)c21 [Compound 460]
C[C@@H](CO)S(=O)(=O)Nc1ccc(C(=O)Nc2cc3ccn(C)c3c(N3CCC(F)(F)CC3)n2)c(N2CCC3(CC2)CC3)c1 [Compound 461]
C[C@H](CO)S(=O)(=O)Nc1ccc(C(=O)Nc2cc3ccn(C)c3c(N3CCC(F)(F)CC3)n2)c(N2CCC3(CC2)CC3)c1 [Compound 462]
C[C@@H]1CN(c2nc(NC(=O)c3ccc(NS(=O)(=O)[C@@H](C)CO)cc3N3CCC4(CC3)CC4)cc3ccn(C)c23)CCO1 [Compound 463]
C[C@@H]1CN(c2nc(NC(=O)c3ccc(NS(=O)(=O)[C@H](C)CO)cc3N3CCC4(CC3)CC4)cc3ccn(C)c23)CCO1 [Compound 464]
Cn1ccc2cc(NC(=O)c3ccc(S(=O)(=O)NCCO)cc3N3CCC4(CC3)CC4)nc(N3CCC(F)(F)CC3)c21 [Compound 465]
C[C@@H]1CN(c2nc(NC(=O)c3ccc(S(=O)(=O)NCCO)cc3N3CCC4(CC3)CC4)cc3ccn(C)c23)CCO1 [Compound 466]
C[C@H]1CN(c2nc(NC(=O)c3ccc(S(=O)(=O)NCCO)cc3N3CCC4(CC3)CC4)cc3ccn(C)c23)CCO1 [Compound 467]
Cn1ccc2cc(NC(=O)c3ccc(S(=O)(=O)NCCO)cc3N3CCC4(CC3)CC4)nc(N3CC(F)(F)C3)c21 [Compound 468]
Cn1ccc2cc(NC(=O)c3ccc(S(=O)(=O)NCCO)cc3N3CCC4(CC3)CC4)nc(OCCC(F)(F)F)c21 [Compound 469]
Cn1ccc2cc(NC(=O)c3ccc(S(=O)(=O)NCCO)cc3N3CCC4(CC3)CC4)nc(N3CCC4(CC4)C3)c21 [Compound 470]
Cn1ccc2cc(NC(=O)c3ccc(S(=O)(=O)NCCO)cc3N3CCC4(CC3)CC4)nc(OC3CCC3)c21 [Compound 471]
Cn1ccc2cc(NC(=O)c3ccc(S(=O)(=O)NCCO)cc3N3CCC4(CC3)CC4)nc(N3CCC(C)(F)C3)c21 (centres unmarked) [Compound 472]
Cn1ccc2cc(NC(=O)c3ccc(S(=O)(=O)NCCO)cc3N3CCC4(CC3)CC4)nc(N3CCC(F)CC3)c21 [Compound 473]
Cn1ccc2cc(NC(=O)c3ccc(S(=O)(=O)NCCO)cc3N3CCC4(CC3)CC4)nc(N3CC4CC4C3)c21 (centres unmarked) [Compound 474]
Cn1ccc2cc(NC(=O)c3ccc(S(=O)(=O)NCCO)cc3N3CCC4(CC3)CC4)nc(CC(C)(C)CO)c21 [Compound 475]
Cn1ccc2cc(NC(=O)c3ccc(S(=O)(=O)NCCO)cc3N3CCC4(CC3)CC4)nc(N3CCOCC3)c21 [Compound 476]
C[C@@H](CO)NS(=O)(=O)c1ccc(C(=O)Nc2cc3ccn(C)c3c(N3CCC(F)(F)CC3)n2)c(N2CCC3(CC2)CC3)c1 [Compound 477]
C[C@H](CO)NS(=O)(=O)c1ccc(C(=O)Nc2cc3ccn(C)c3c(N3CCC(F)(F)CC3)n2)c(N2CCC3(CC2)CC3)c1 [Compound 478]
C[C@@H]1CN(c2nc(NC(=O)c3ccc(S(=O)(=O)N[C@@H](C)CO)cc3N3CCC4(CC3)CC4)cc3ccn(C)c23)CCO1 [Compound 479]
C[C@H](CO)NS(=O)(=O)c1ccc(C(=O)Nc2cc3ccn(C)c3c(N3CCO[C@H](C)C3)n2)c(N2CCC3(CC2)CC3)c1 [Compound 480]
C[C@@H]1CN(c2nc(C(=O)Nc3ccc(NS(=O)(=O)CCO)cc3N3CCC4(CC3)CC4)cc3ccn(C)c23)CCO1 [Compound 482]
C[C@H]1CN(c2nc(C(=O)Nc3ccc(NS(=O)(=O)CCO)cc3N3CCC4(CC3)CC4)cc3ccn(C)c23)CCO1 [Compound 483]
Cn1ccc2cc(C(=O)Nc3ccc(NS(=O)(=O)CCO)cc3N3CCC4(CC3)CC4)nc(N3CC(F)(F)C3)c21 [Compound 484]
Cn1ccc2cc(C(=O)Nc3ccc(NS(=O)(=O)CCO)cc3N3CCC4(CC3)CC4)nc(OCCC(F)(F)F)c21 [Compound 485]
Cn1ccc2cc(C(=O)Nc3ccc(NS(=O)(=O)CCO)cc3N3CCC4(CC3)CC4)nc(N3CCC4(CC4)C3)c21 [Compound 486]
Cn1ccc2cc(C(=O)Nc3ccc(NS(=O)(=O)CCO)cc3N3CCC4(CC3)CC4)nc(OC3CCC3)c21 [Compound 487]
Cn1ccc2cc(C(=O)Nc3ccc(NS(=O)(=O)CCO)cc3N3CCC4(CC3)CC4)nc(N3CCC(C)(F)C3)c21 (centres unmarked) [Compound 488]
Cn1ccc2cc(C(=O)Nc3ccc(NS(=O)(=O)CCO)cc3N3CCC4(CC3)CC4)nc(N3CCC(F)CC3)c21 [Compound 489]
Cn1ccc2cc(C(=O)Nc3ccc(NS(=O)(=O)CCO)cc3N3CCC4(CC3)CC4)nc(N3CC4CC4C3)c21 (centres unmarked) [Compound 490]
Cn1ccc2cc(C(=O)Nc3ccc(NS(=O)(=O)CCO)cc3N3CCC4(CC3)CC4)nc(NC(C)(C)CO)c21 [Compound 491]
Cn1ccc2cc(C(=O)Nc3ccc(NS(=O)(=O)CCO)cc3N3CCC4(CC3)CC4)nc(N3CCOCC3)c21 [Compound 492]
C[C@@H](CO)S(=O)(=O)Nc1ccc(NC(=O)c2cc3ccn(C)c3c(N3CCC(F)(F)CC3)n2)c(N2CCC3(CC2)CC3)c1 [Compound 493]
C[C@H](CO)S(=O)(=O)Nc1ccc(NC(=O)c2cc3ccn(C)c3c(N3CCC(F)(F)CC3)n2)c(N2CCC3(CC2)CC3)c1 [Compound 494]
C[C@@H]1CN(c2nc(C(=O)Nc3ccc(NS(=O)(=O)[C@@H](C)CO)cc3N3CCC4(CC3)CC4)cc3ccn(C)c23)CCO1 [Compound 495]
C[C@@H]1CN(c2nc(C(=O)Nc3ccc(NS(=O)(=O)[C@H](C)CO)cc3N3CCC4(CC3)CC4)cc3ccn(C)c23)CCO1 [Compound 496]
Cn1ccc2cc(C(=O)Nc3ccc(S(=O)(=O)NCCO)cc3N3CCC4(CC3)CC4)nc(N3CCC(F)(F)CC3)c21 [Compound 497]
C[C@@H]1CN(c2nc(C(=O)Nc3ccc(S(=O)(=O)NCCO)cc3N3CCC4(CC3)CC4)cc3ccn(C)c23)CCO1 [Compound 498]
C[C@H]1CN(c2nc(C(=O)Nc3ccc(S(=O)(=O)NCCO)cc3N3CCC4(CC3)CC4)cc3ccn(C)c23)CCO1 [Compound 499]
Cn1ccc2cc(C(=O)Nc3ccc(S(=O)(=O)NCCO)cc3N3CCC4(CC3)CC4)nc(N3CC(F)(F)C3)c21 [Compound 500]
Cn1ccc2cc(C(=O)Nc3ccc(S(=O)(=O)NCCO)cc3N3CCC4(CC3)CC4)nc(OCCC(F)(F)F)c21 [Compound 501]
Cn1ccc2cc(C(=O)Nc3ccc(S(=O)(=O)NCCO)cc3N3CCC4(CC3)CC4)nc(N3CCC4(CC4)C3)c21 [Compound 502]
Cn1ccc2cc(C(=O)Nc3ccc(S(=O)(=O)NCCO)cc3N3CCC4(CC3)CC4)nc(OC3CCC3)c21 [Compound 503]
Cn1ccc2cc(C(=O)Nc3ccc(S(=O)(=O)NCCO)cc3N3CCC4(CC3)CC4)nc(N3CCC(C)(F)C3)c21 (centres unmarked) [Compound 504]
Cn1ccc2cc(C(=O)Nc3ccc(S(=O)(=O)NCCO)cc3N3CCC4(CC3)CC4)nc(N3CCC(F)CC3)c21 [Compound 505]
Cn1ccc2cc(C(=O)Nc3ccc(S(=O)(=O)NCCO)cc3N3CCC4(CC3)CC4)nc(N3CC4CC4C3)c21 (centres unmarked) [Compound 506]
Cn1ccc2cc(C(=O)Nc3ccc(S(=O)(=O)NCCO)cc3N3CCC4(CC3)CC4)nc(NC(C)(C)CO)c21 [Compound 507]
Cn1ccc2cc(C(=O)Nc3ccc(S(=O)(=O)NCCO)cc3N3CCC4(CC3)CC4)nc(N3CCOCC3)c21 [Compound 508]
C[C@@H](CO)NS(=O)(=O)c1ccc(NC(=O)c2cc3ccn(C)c3c(N3CCC(F)(F)CC3)n2)c(N2CCC3(CC2)CC3)c1 [Compound 509]
